Assay results: patent US20040259766A1, “Use of glutamate, glutamate derivatives or metabolites, glutamate analogues or mixtures thereof for the manufacture of a composition for the treatment of osteoporosis” (priority 2004, published 2004)
Where two headings read alike, the source gives them in different places. Marks after values point to notes of the source that are not given here. Residues, ends and D or L forms follow the SMILES beside them.

Tests used:
humerus and femur [1] = assay: Three point bending test (Instron 4302) of humerus and femur of piglets given Ala-Gln or AKG orally; assay type: in vivo, pig; conditions: piglets at 35 days of postnatal life; 0.4 g/kg b.w. oral once a day; mean ± SEM
Description: (§1) All piglets suckled sow milk before weaning. After weaning at the age of 28 days piglets were fed ad libitum with a standard mixture Premix prestarter (PP) (Food plant-Motycz, Poland) and free access to water was allowed. Piglets were allotted to three experimental trials:
(§2) 2—Second group, receiving 0.4 g/kg/b.w. of L-alanyl-L-glutamine (ala-gin), (2 ml solution/kg b.w.)
(§3) At the age of 35 days, piglets were sacrificed, eviscerated and bones were sampled.
(§4) Using Instron 4302 apparatus and applying three point bending test as presented in FIG. 1, the following properties of the bones were determined from curves showing the relation between load and deflection: […]

ribs [2] = assay: Architectural and geometric properties of ribs of piglets; assay type: in vivo, pig; conditions: piglets at 35 days of postnatal life; 0.4 g/kg b.w. oral once a day; mean ± SEM
Description: as §1, §2, §3
(§5) Architectural and geometric properties of bone were estimated based on measurements of horizontal and vertical cross section as well as interior and exterior diameter of the bone.
(§6) Mean relative wall thickness (MRWT) expresses the ratio of wall to lumen measures and serves as an indicator in the process of architectural adaptation of bone to physiological stress during the growth of the body. When the lumen increases with unchanged wall thickness the MRWT decreases but bone resistance to strain increases.

humerus and femur [3] = assay: Architectural and geometric properties of humerus and femur of piglets; assay type: in vivo, pig; conditions: piglets at 35 days of postnatal life; 0.4 g/kg b.w. oral once a day; mean ± SEM
Description: as §1, §2, §3, §5, §6

[4] = Gain of bodyweight of piglets during postnatal life; assay type: in vivo, pig
Description: as §1, §2, §3

ulna bone = conditions: group A, 0.8 g/kg body weight oral
Description: During general anesthetic surgery, the ulnar is broken and optionally denervated. On the first day after operation saline, AKG or Ala-Gln is administered orally at a dose of 0.8 g/kg body weight in 2 ml.
After the experimental period, the turkeys will be weighed and sacrified in order to measure bone mineral density (BMD).
(§7) Bone mineral density (BMD) was analysed by DEXA (Dual Energy X-ray Absorptiometry) using LUNAR apparatus.

ribs [5] = assay: Three point bending test (Instron 4302) of ribs of piglets given Ala-Gln or AKG orally; assay type: in vivo, pig
Description: as §1, §2, §3, §4

right femur = assay: Bone mineral density (DEXA) of the right femur of piglets; assay type: in vivo, pig; conditions: right femur proximal and distal metaphysis, 21 and 35 days (FIG. 17, 18)
Description: as §7

femur = assay: Femur bone mineral density in intact, shame operated and ovariectomized rats given AKG in drinking water; assay type: in vivo, Wistar rat; conditions: in all three groups (INT, SHO, OVX); 60 days of drinking water with AKG; p<0.01 in all groups
Description: 60 female Wistar rats at the age of 2 months and with an initial bodyweight of 200 g are used.
The rats are divided into three groups (n=20), where Group 1 is shame operated, Group 2 is ovariectomized and Group 3 is intact, i.e. not operated at all.
20 of the rats are shame-operated (SHO), where the ovaries are exteriorised and replaced intact.
The second group of ovariectomized rats (OVX) are submitted to ovariectomy from a dorsal approach.
Six months after ovariectomy, the animals from group 1 and 2, are divided into two additional sub-groups; one placebo and one experimental group.
After 60 days with placebo and experimental drinking water the rats are anaesthetised in CO2 and femur isolated for further analysis of bone mineral density.

[6] = piglets at 35 days of postnatal life, 0.4 g/kg b.w. oral once a day, mean ± SEM

Compound: C[C@H](N)C(=O)N[C@@H](CCC(N)=O)C(=O)O [Ala-Gln, L-alanyl-L-glutamine, reference compound] (H-Ala-Gln-OH)
- Bone maximum elastic strength (Wy) femur (humerus and femur [1]): 1016.8 ± 46.68 N
- Bone maximum elastic strength (Wy) humerus (humerus and femur [1]): 638.7 ± 9.91 N
- Bone ultimate strength (Wf) humerus (humerus and femur [1]): 743.0 ± 15.71∇ N
- MRWT (ribs 4-9) (ribs [2]): 0.70 ± 0.038
- Mean relative wall thickness (MRWT) femur (humerus and femur [3]): 0.88 ± 0.12
- Mean relative wall thickness (MRWT) humerus (humerus and femur [3]): 0.64 ± 0.07
- Second moment of inertia (Ix) humerus (humerus and femur [3]): 368.4 ± 24.31* mm^4
- Bodyweight difference (control group less than Ala-Gln treated group) ([4]; day 14, 0.4 g/kg b.w. oral): about 690 g
- Bodyweight difference (control group less than Ala-Gln treated group) ([4]; day three, 0.4 g/kg b.w. oral): about 96 g

Compound: O=C(O)CCC(=O)C(=O)O [AKG, alpha-ketoglutaric acid]
- Bone maximum elastic strength (Wy) femur (humerus and femur [1]): 1042.9 ± 73.66 N
- Bone maximum elastic strength (Wy) humerus (humerus and femur [1]): 726.0 ± 37.73 N
- Bone ultimate strength (Wf) femur (humerus and femur [1]): 1123.0 ± 75.09 N
- Bone ultimate strength (Wf) humerus (humerus and femur [1]): 857.6 ± 45.42 N
- BMD of the ulna bone, difference compared to saline treated turkeys (ulna bone; left wing control (intact), p<0.01): 25%
- BMD of the ulna bone, difference compared to saline treated turkeys (ulna bone; right wing experimental (neurectomized, fracture of the ulnae), p<0.055): about 11%
- Cross sectional area (A) (ribs 4-9) (ribs [2]): 10.52 ± 0.35* mm^2
- MRWT (ribs 4-9) (ribs [2]): 0.60 ± 0.026
- Second moment of inertia (ribs 4-9) (ribs [2]): 15.42 ± 0.93* mm^4
- Cross-sectional area (A) femur (humerus and femur [3]): 64.7 ± 3.82* mm^2
- Cross-sectional area (A) humerus (humerus and femur [3]): 52.7 ± 4.1* mm^2
- Second moment of inertia (Ix) femur (humerus and femur [3]): 696.5 ± 48.7* mm^4
- Second moment of inertia (Ix) humerus (humerus and femur [3]): 459.4 ± 59.42* mm^4
- Bodyweight of the piglets versus control group and Ala-Gln group ([4]; p>0.01 in comparison to Ala-Gln as printed): more dramatic
- Yielding stress of the 5th rib (ribs [5]; 35-days-old piglets, versus control, FIG. 11): significant increase
- Bone maximum elastic strength (Wy) (ribs 4-9) (ribs [5]; [6]): 522.5 ± 17.97 N
- Moment of ultimate strength ribs (4-9) (ribs [5]; [6]): 737.445 ± 23.85 N
- Ultimate strength (Wf) (ribs 4-9) (ribs [5]; [6]): 585.1 ± 18.5 N
- Bone mineralization versus piglets receiving placebo (right femur): higher
- BMD, difference between AKG treated rats and placebo treated rats (femur): about 10%
